US20100093721A1, “PHENYL AND HETEROARYL SUBSTITUTED THIENO[2,3-d]PYRIMIDINES AND THEIR USE AS ADENOSINE A2a RECEPTOR ANTAGONISTS” (priority 2008, published 2010)

Columns and labels:
[1] = target: T1, human A2a adenosine receptor (Homo sapiens, UniProt P29274); experiment: Ligand Binding Assay for Adenosine A2a Receptor; details: HEK293 plasma membrane, radioligand [3H]CGS21680; read-out: A2A-B Ki
T1 construct: purchased PerkinElmer RB-HA2a; host or cells: HEK293 plasma membranes
Method: Ligand Binding Assay for Adenosine A2a Receptor
Ligand binding assay of adenosine A2a receptor was performed using plasma membrane of HEK293 cells containing human A2a adenosine receptor (PerkinElmer, RB-HA2a) and radioligand [^3H]CGS21680 (PerkinElmer, NET1021). Assay was set up in 96-well polypropylene plate in total volume of 200 μL by sequentially adding 20 μL 1:20 diluted membrane, 130 μL assay buffer (50 mM Tris.HCl, pH7.4 10 mM MgCl2, 1 mM EDTA) containing [^3H] CGS21680, 50 μL diluted compound (4×) or vehicle control in assay buffer. Nonspecific binding was determined by […] NECA. Reaction was carried out at room temperature for 2 hours before filtering through 96-well GF/C filter plate pre-soaked in 50 mM Tris.HCl, pH7.4 containing 0.3% polyethylenimine. Plates were then washed 5 times with cold 50 mM Tris.HCl, pH7.4, dried and sealed at the bottom. Microscintillation fluid 30 μL was added to each well and the top sealed. Plates were counted on Packard Topcount for [^3H]. Data was analyzed in Microsoft Excel and GraphPad Prism programs. (Varani, K.; Gessi, S.; Dalpiaz, A.; Borea, P. A. British Journal of Pharmacology, 1996, 117, 1693)

[2] = target: T2, human adenosine A2a receptor (Homo sapiens, UniProt P29274); experiment: Adenosine A2a Receptor Functional Assay (A2AGAL2); assay type: cell-based; details: CHO-K1 cells, cAMP inducible beta-galactosidase reporter, 15 nM NECA agonist challenge
T2 construct: expressed in transfected cells; host or cells: CHO-K1
T2 sequence (P29274 whole entry): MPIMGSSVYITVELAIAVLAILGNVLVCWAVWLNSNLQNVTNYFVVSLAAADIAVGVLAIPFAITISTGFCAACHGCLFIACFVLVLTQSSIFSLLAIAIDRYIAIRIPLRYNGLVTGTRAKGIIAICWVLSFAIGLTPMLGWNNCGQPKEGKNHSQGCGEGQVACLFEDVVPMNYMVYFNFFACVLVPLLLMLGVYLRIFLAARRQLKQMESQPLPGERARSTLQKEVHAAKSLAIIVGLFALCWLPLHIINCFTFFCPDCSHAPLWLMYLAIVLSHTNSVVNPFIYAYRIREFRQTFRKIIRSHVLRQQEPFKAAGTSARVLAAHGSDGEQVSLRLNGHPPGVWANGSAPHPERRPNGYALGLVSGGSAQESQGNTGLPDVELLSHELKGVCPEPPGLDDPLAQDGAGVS
Method: Adenosine A2a Receptor Functional Assay (A2AGAL2)
Prior to assay, these plates were cultured for two days at 37° C., 5% CO2, 90% Rh. On the day of the functional assay, culture media was removed and replaced with 45 uL assay medium (Hams/F-12 Modified (Mediatech #10-080CV) supplemented w/0.1% BSA). Test compounds were diluted and 11 point curves created at a 1000× concentration in 100% DMSO. Immediately after addition of assay media to the cell plates, 50 nL of the appropriate test compound antagonist or agonist control curves were added to cell plates using a Cartesian Hummingbird. […] A control curve of NECA, a DMSO/Media control, and a single dose of Forskolin (Sigma F3917) were also included on each plate. After additions, cell plates were allowed to incubate at 37° C., 5% CO2, 90% Rh for 5.5-6 hours. After incubation, media was removed, and cell plates were washed 1×50 uL with DPBS w/o Ca & Mg (Mediatech 21-031-CV). Into dry wells, 20 uL of 1× Reporter Lysis Buffer (Promega E3971 (diluted in dH2O from 5× stock)) was added to each well and plates frozen at −20° C. overnight. For β-galactosidase enzyme colorimetric assay, plates were thawed out at room temperature and 20 μL 2× assay buffer (Promega) was added to each well. Color was allowed to develop at 37° C., 5% CO2, 90% Rh for 1-1.5 h or until reasonable signal appeared. The colorimetric reaction was stopped with the addition of 60 μL/well 1M sodium carbonate. Plates were counted at 405 nm on a SpectraMax Microplate Reader (Molecular Devices). Data was analyzed in Microsoft Excel and IC/EC50 curves were fit using a standardized macro.

[3] = target: T3, human adenosine A1 receptor (Homo sapiens, UniProt P30542); experiment: Adenosine A1 Receptor Functional Assay (A1GAL2); assay type: cell-based; details: CHO-K1 cells, cAMP inducible beta-galactosidase reporter, 4 nM r-PIA/1 uM Forskolin challenge
T3 construct: expressed in transfected cells; host or cells: CHO-K1
T3 sequence (P30542 1-326): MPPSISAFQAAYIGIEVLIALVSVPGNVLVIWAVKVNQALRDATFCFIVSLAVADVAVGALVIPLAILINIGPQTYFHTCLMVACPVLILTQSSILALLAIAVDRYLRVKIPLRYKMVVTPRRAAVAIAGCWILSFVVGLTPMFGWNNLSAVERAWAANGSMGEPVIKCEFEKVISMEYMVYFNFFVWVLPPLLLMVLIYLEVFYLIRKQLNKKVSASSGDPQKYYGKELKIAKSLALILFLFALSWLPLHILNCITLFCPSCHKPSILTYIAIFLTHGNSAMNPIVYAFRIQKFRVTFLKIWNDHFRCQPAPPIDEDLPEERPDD
Method: Adenosine A1 Receptor Functional Assay (A1GAL2)
To initiate the functional assay, cryopreserved CHO-K1 cells overexpressing the human adenosine A1 receptor and containing a cAMP inducible beta-galactosidase reporter gene were thawed, centrifuged, DMSO containing media removed, and then seeded with fresh culture media into clear 384-well tissue culture treated plates (BD #353961) at a concentration of 10K cells/well. Prior to assay, these plates were cultured for two days at 37° C., 5% CO2, 90% Rh. On the day of the functional assay, culture media was removed and replaced with 45 uL assay medium (Hams/F-12 Modified (Mediatech #10-080CV) supplemented w/0.1% BSA). Test compounds were diluted and 11 point curves created at a 1000× concentration in 100% DMSO. Immediately after addition of assay media to the cell plates, 50 nL of the appropriate test compound antagonist or agonist control curves were added to cell plates using a Cartesian Hummingbird. Compound curves were allowed to incubate at room temperature on cell plates for approximately 15 minutes before addition of a 4 nM r-PIA (Sigma P4532)/1 uM Forskolin (Sigma F3917) agonist challenge (5 uL volume). A control curve of r-PIA in 1 uM Forskolin, a DMSO/Media control, and a single dose of Forskolin were also included on each plate. After additions, cell plates were allowed to incubate at 37° C., 5% CO2, 90% Rh for 5.5-6 hours. After incubation, media was removed, and cell plates were washed 1×50 uL with DPBS w/o Ca & Mg (Mediatech 21-031-CV). Into dry wells, 20 uL of 1× Reporter Lysis Buffer (Promega E3971 (diluted in dH2O from 5× stock)) was added to each well and plates frozen at −20° C. overnight. For β-galactosidase enzyme calorimetric assay, plates were thawed out at room temperature and 20 μL 2× assay buffer (Promega) was added to each well. Color was allowed to develop at 37° C., 5% CO2, 90% Rh for 1-1.5 h or until reasonable signal appeared. The calorimetric reaction was stopped with the addition of 60 μL/well 1M sodium carbonate. Plates were counted at 405 nm on a SpectraMax Microplate Reader (Molecular Devices). Data was analyzed in Microsoft Excel and IC/EC50 curves were fit using a standardized macro.

T1 sequence (P29274 whole entry): as the sequence (P29274 whole entry) above

Row | Ki [1] | Ki [2] | Ki [3] | SMILES
1 | 6.72 nM | 1.98 nM | 10.2 nM | COc1ccccc1C(O)c1cc2c(N)nc(-c3ccc(C)o3)nc2s1 (stereo not drawn) [Example 11, [4-Amino-2-(5-methyl-furan-2-yl)-thieno[2,3-d]pyrimidin-6-yl]-(2-methoxy-phenyl)-methanol]
2 | 51 nM | 10.1 nM | 115 nM | COc1ccccc1Cc1cc2c(N)nc(-c3ccc(C)o3)nc2s1 [Example 12, 6-(2-Methoxy-benzyl)-2-(5-methyl-furan-2-yl)-thieno[2,3-d]pyrimidin-4-ylamine]
3 | 37.5 nM | 25.2 nM | 3000 nM | Nc1nc(-c2ccc(C(F)F)o2)nc2sc(Cc3ccccc3)cc12 [Example 43, 6-Benzyl-2-(5-difluoromethyl-furan-2-yl)-thieno[2,3-d]pyrimidin-4-ylamine]
4 | 6.61 nM | 61.2 nM | 1570 nM | Cc1ccc(-c2nc(N)c3cc(CCc4ccc(F)cc4)sc3n2)o1 [Example 29, 6-[2-(4-Fluoro-phenyl)-ethyl]-2-(5-methyl-furan-2-yl)-thieno[2,3-d]pyrimidin-4-ylamine]
5 | 100 nM | 230 nM | 505 nM | Cc1ccc(-c2nc(N)c3cc(C(=O)c4cccc(CN5CCOCC5)c4)sc3n2)o1 [Example 5, [4-Amino-2-(5-methyl-furan-2-yl)-thieno[2,3-d]pyrimidin-6-yl]-(3-morpholin-4-ylmethyl-phenyl)-methanone]
6 | 173 nM | 938 nM | 20200 nM | Cc1ccc(-c2nc(N)c3cc(/C=C/c4ccc(F)cc4)sc3n2)o1 [Example 30, 6-[2-(4-Fluoro-phenyl)-vinyl]-2-(5-methyl-furan-2-yl)-thieno[2,3-d]pyrimidin-4-ylamine]
7 | 50 nM | 189 nM | 2760 nM | Cc1ccc(-c2nc(N)c3cc(CCc4ccccc4)sc3n2)o1 [Example 22, 2-(5-Methyl-furan-2-yl)-6-phenethyl-thieno[2,3-d]pyrimidin-4-ylamine]
8 | 26 nM | 236 nM | 3340 nM | Cc1ccc(-c2nc(N)c3cc(/C=C/c4ccccc4)sc3n2)o1 [Example 33, 2-(5-Methyl-furan-2-yl)-6-styryl-thieno[2,3-d]pyrimidin-4-ylamine]
